Source: US20260069588A1, “VEPDEGESTRANT FOR USE IN TREATING CANCER” (Arvinas Operation, Inc., priority 2022, published 2026)
Where two headings read alike, the source gives them in different places.

How the values were obtained:
MCF7 cells = assay: Live-cell imaging proliferation, MCF7; format: cell-based; conditions: Homo sapiens, 144 h; MCF7, up to 6 days
From the text: Full growth of the cells over this time period is shown by extent of cell confluence with dimethyl sulfoxide (DMSO).

[1] = MCF7/estradiol xenograft tumor growth inhibition; format: in vivo, mouse; conditions: in vivo, oral; mouse, 30 mg/kg; read-out: mean AUC0-24
Protocol: (§1) The 30 mg/kg dose was associated with a mean AUC0-24 of 5,717 ng·h/mL. The tumor ER levels were reduced by ≥94% at all doses compared to mice administered vehicle only (FIG. 3B).
(§2) The 30 mg/kg dose was associated with a mean AUC0-24 of 5,717 ng·h/mL.

MCF7/estradiol xenograft = MCF7/estradiol xenograft tumor growth inhibition; format: in vivo, mouse
Protocol: as §1, §2

ER = molecular target: T1, ER (Rattus norvegicus, UniProt P06211); assay: Uterine wet weight in juvenile rats (ER agonist activity); format: in vivo
T1 construct: uterine wet weight in juvenile rats; from tissue; host or cells: uterus of juvenile rats, in vivo

GR = GR (Homo sapiens, UniProt P04150); assay: Secondary pharmacodynamics binding, GR; conditions: in vitro
opioid kappa receptor = opioid kappa receptor (Homo sapiens, UniProt P41145); assay: Secondary pharmacodynamics binding, opioid kappa receptor; conditions: in vitro
hERG channel = hERG channel (Homo sapiens, UniProt Q12809); assay: hERG channel inhibition; format: biochemical
Protocol: The pivotal nonclinical safety studies were conducted in the US in accordance with GLP regulations per the US 21 CFR Part 58. These include the cardiovascular safety pharmacology study in dogs, the pivotal 28-day and 3-month repeat-dose toxicology studies in rats and dogs, and an in vitro phototoxicity assay. The bacterial reverse mutation assay, in vitro micronucleus assay, and 2 in vitro hERG studies were conducted in the UK in accordance with the UK Good Laboratory Practice Monitoring Authority, MHRA: Good Laboratory Practice Regulations 1999, Statutory Instrument 1999 No. 3106 as amended by the Good Laboratory Practice (Codification Amendments Etc.) Regulations, 2004, Statutory Instrument 2004, No. 994; and the OECD GLP and OECD Principles on Good Laboratory Practice ENV/MC/CHEM (98) 17 (Revised in 1997, Issued January 1998).accordance with the OECD Principles of Good Laboratory Practice and as accepted by Regulatory Authorities throughout the European Union, United States of America (FDA), Japan (MHLW), and other countries that are signatories to the OECD Mutual Acceptance of Data Agreement.

[2] = 3-month GLP oral toxicity study in rats; format: in vivo, rat; conditions: for AUC(0-t) / Cmax: po, 300 mg/kg/day
Protocol: Male and female rats, 10/sex/group, were administered 0 (vehicle), 30, 100, or 300 mg/kg/day. Assessment of toxicity was based on mortality, clinical observations, BWs, food consumption, ophthalmic examinations, and clinical and anatomic pathology. Blood samples for TK were obtained from a satellite group of animals.

[3] = Interconversion (epimerization) Compound A/Compound B in animals; format: in vivo, mouse, rat, dog, and monkey; conditions: monkey
BCRP = BCRP (Homo sapiens, UniProt Q9UNQ0); assay: Efflux transporter substrate assessment (inside-out vesicular assay), BCRP; format: in vitro ADME
[4] = pH effect on absorption with famotidine in fasted rats and dogs; format: in vivo; conditions: spray-dried dispersion
[5] = Plasma protein binding, rat; format: in vitro ADME; conditions: read-out: free fraction
[6] = Plasma protein binding, dog; format: in vitro ADME; conditions: read-out: free fraction
[7] = Tissue distribution in rat; format: in vivo; conditions: for Kp at 3 days: 100 mg/kg/day PO 3 days
[8] = system: BALB/c 3T3 mouse fibroblasts; assay: In vitro 3T3 phototoxicity; format: cell-based
[9] = Clinical Pharmacology Study: single 200 mg dose PK, all 3 cohorts; conditions: human, in vivo, oral
Protocol: The geometric mean T1/2 following a single 200 mg dose was approximately 40 hours under fed condition.

[10] = rat, in vivo
[11] = in vivo
From the text: TEAE's from participants in both studies have been combined and are described below.

[12] = Preliminary embryo-fetal development study
[13] = female, Sprague-Dawley, rat, in vivo, oral, 30 mg/kg/day

Chain of hERG channel (Q12809 whole entry): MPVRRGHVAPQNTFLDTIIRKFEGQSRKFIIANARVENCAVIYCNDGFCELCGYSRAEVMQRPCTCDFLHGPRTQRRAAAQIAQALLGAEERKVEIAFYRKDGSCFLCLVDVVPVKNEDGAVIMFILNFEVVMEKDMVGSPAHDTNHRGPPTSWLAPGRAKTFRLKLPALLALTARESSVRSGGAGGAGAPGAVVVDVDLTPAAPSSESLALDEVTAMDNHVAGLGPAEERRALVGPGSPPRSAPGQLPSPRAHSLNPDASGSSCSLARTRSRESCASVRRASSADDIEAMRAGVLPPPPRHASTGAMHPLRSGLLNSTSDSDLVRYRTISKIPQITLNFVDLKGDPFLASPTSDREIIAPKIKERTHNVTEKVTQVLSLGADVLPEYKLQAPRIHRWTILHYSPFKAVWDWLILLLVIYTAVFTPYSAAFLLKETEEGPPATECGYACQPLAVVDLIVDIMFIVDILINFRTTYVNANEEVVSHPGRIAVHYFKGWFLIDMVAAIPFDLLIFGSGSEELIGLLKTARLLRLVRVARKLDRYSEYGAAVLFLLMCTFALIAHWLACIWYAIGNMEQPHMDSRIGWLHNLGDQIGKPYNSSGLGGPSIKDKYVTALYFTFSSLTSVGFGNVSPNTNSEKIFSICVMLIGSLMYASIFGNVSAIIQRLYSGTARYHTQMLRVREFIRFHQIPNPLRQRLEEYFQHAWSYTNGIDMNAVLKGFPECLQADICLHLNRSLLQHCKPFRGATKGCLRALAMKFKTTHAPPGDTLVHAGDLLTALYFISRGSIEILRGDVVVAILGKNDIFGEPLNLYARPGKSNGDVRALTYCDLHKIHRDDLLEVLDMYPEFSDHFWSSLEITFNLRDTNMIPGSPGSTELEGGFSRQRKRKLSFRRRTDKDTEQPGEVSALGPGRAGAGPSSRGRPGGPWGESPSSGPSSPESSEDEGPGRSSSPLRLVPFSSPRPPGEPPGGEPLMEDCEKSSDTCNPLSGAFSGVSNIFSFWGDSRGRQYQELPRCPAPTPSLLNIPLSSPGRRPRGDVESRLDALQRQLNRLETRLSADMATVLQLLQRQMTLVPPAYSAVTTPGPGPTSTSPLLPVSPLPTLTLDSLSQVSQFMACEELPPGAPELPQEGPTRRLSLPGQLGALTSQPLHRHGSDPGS
Chain of opioid kappa receptor (P41145 whole entry): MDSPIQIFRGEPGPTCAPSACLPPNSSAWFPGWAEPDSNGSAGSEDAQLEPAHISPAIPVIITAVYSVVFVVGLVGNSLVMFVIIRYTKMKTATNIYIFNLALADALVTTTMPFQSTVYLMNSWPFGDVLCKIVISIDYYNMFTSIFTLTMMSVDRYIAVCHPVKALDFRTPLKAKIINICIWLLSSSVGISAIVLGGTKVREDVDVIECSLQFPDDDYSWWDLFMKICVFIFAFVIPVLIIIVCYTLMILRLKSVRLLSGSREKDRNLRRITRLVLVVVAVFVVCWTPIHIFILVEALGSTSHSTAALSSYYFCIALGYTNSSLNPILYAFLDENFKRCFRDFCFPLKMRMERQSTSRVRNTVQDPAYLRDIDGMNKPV
Chain of BCRP (Q9UNQ0 whole entry): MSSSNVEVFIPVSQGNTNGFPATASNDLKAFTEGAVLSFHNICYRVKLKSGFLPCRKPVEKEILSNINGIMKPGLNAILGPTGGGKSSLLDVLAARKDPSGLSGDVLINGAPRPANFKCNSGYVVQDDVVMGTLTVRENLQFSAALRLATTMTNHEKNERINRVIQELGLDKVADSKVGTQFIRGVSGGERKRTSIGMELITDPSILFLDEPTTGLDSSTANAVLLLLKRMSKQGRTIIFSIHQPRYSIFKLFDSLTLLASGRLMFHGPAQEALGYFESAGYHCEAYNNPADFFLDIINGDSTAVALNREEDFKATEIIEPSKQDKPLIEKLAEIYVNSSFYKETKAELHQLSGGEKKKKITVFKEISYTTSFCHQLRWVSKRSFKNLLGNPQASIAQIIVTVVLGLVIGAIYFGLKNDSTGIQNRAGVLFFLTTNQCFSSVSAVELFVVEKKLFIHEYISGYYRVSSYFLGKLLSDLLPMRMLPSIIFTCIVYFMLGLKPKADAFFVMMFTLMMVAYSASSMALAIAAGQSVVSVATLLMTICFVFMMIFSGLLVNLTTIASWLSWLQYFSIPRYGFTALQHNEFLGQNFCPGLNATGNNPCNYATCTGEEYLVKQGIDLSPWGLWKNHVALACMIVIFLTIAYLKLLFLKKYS
T1 sequence (P06211 whole entry): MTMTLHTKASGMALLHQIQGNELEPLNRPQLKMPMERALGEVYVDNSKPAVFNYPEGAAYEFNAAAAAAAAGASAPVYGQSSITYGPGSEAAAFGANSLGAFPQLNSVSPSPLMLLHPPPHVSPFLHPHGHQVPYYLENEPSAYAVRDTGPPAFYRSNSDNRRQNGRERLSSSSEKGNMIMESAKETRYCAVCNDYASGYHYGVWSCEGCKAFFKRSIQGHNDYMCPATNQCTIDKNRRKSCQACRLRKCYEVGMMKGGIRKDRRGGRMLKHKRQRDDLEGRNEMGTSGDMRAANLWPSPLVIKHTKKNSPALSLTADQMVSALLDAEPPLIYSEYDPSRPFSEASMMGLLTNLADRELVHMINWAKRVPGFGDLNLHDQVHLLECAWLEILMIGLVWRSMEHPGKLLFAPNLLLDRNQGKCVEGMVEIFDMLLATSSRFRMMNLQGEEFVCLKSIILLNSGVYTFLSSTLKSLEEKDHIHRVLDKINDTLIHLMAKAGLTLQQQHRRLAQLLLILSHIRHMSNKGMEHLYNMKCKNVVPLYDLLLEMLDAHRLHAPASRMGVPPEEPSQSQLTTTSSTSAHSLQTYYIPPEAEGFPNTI
Chain of GR (P04150 whole entry): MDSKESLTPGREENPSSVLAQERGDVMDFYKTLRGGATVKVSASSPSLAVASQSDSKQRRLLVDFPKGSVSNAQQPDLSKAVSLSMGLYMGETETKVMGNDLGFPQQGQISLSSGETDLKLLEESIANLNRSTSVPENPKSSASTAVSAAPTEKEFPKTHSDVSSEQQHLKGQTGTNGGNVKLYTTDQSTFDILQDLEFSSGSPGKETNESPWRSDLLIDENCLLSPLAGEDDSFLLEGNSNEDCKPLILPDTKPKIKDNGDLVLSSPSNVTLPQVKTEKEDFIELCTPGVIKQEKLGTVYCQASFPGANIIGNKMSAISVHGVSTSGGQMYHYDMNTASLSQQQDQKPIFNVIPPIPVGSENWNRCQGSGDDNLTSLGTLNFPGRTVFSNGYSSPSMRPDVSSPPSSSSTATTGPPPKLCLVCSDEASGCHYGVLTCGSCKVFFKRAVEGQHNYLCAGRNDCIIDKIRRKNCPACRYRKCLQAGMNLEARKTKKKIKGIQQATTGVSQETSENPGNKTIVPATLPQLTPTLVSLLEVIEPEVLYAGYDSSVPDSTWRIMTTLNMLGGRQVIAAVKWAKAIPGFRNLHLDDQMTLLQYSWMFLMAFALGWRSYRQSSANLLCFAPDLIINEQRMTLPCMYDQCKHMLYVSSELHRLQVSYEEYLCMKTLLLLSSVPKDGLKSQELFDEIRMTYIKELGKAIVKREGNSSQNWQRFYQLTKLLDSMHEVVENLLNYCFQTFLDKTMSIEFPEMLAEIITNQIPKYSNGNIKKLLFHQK

`O=C1CC[C@H](N2Cc3cc(N4CCN(CC5CCN(c6ccc([C@@H]7c8ccc(O)cc8CC[C@@H]7c7ccccc7)cc6)CC5)CC4)ccc3C2=O)C(=O)N1` [Compound A, (S)-3-(5-(4-((1-(4-((1R,2S)-6-hydroxy-2-phenyl-1,2,3,4-tetrahydronaphthalen-1-yl)phenyl)piperidin-4-yl)methyl)piperazin-1-yl)-1-oxoisoindolin-2-yl)piperidine-2,6-dione] gave a GI50 (MCF7 cells) of 4 nM, an AUC(0-t) [1] of 5720 ng·h/mL and a TGI (MCF7/estradiol xenograft; 3 mg/kg PO QD 28 days) of 85%. The TGI (MCF7/estradiol xenograft; 10 mg/kg PO QD 28 days) was 98%, the TGI (MCF7/estradiol xenograft; 30 mg/kg PO QD 28 days) was 124% and the uterine wet weight (ER) was “did not increase uterine wet weight”. For the same compound, the binding (GR) was “bound”, the binding (opioid kappa receptor) was “bound” and the IC50 (hERG channel) was over 25100 nM. For the same compound, the “unbound Cmax margin to hERG IC50” value (hERG channel; recommended Phase 3 dose of 200 mg) was “approximately 170 ×”, the “sex differences in Cmax and AUC0-24” value ([2]; both, rat, in vivo) was “less than 2 fold” and the NOAEL ([2]; female rats, 3 months oral) was “a NOAEL was not determined”. The AUC(0-t) ([2]; female, rat, in vivo) was 75000 ng·h/mL, the Cmax ([2]; female, rat, in vivo) was 3710 ng/mL and the AUC(0-t) ([2]; male, rat, in vivo) was 88500 ng·h/mL. For the same compound, the Cmax ([2]; male, rat, in vivo) was 4330 ng/mL, the NOAEL at 3 months ([2]; rat, in vivo, male rats, 3 months oral) was 300 mg/kg/day and the extent of epimerization [3] was “negligible”. For the same compound, the “substrate of BCRP” value (BCRP) was “unlikely to be a substrate”, the “pH effect on absorption with famotidine” value [4] was “lowered PK at neutral pH” and the fraction unbound at 1 μM [5] was 0.082. For the same compound, the fraction unbound at 1 μM [6] was 0.026, the “tissue accumulation upon repeat-dose” value [7] was “no signs of tissue accumulation” and the Kp at 3 days ([7]; brain, read-out: tissue plasma ratio, brain) was at most 0.1. The “blood brain barrier crossing” value ([7]; in vivo) was “does not readily cross the blood brain barrier”, the Kp at 3 days ([7]; lung, read-out: tissue plasma ratio, lung) was 5.6 to 13.9 and the phototoxicity [8] was “not phototoxic”. The half-life ([9]; fed, read-out: geometric mean T1/2 (converted)) was about 40 h, the Tmax ([9]; read-out: median Tmax across cohorts) was 6 to 8 h and the “developmental NOAEL” value [10] was “could not be established”. For the same compound, the deaths [11] was “No deaths were reported”, the “TK animals confirmed pregnant at GD 18” value ([12]; 30 mg/kg) was 5/6 and the “females with pregnancy confirmed at GD 21” value (“females” below) ([12]; 30 mg/kg) was 7/8. The post implantation loss ([12]; 30 mg/kg/day) was 47.31%, the “mean number of live fetuses” value ([12]; 30 mg/kg/day, controls 11.3) was 7.0 live fetuses/litter and the “TK animals confirmed pregnant at GD 18” value ([12]; 100 mg/kg) was 3/6. The “females” value ([12]; 100 mg/kg) was 4/8, the “mean number of live fetuses” value ([12]; 100 mg/kg/day) was “no live fetuses/litter” and the post implantation loss ([12]; 100 mg/kg/day) was 100%. For the same compound, the “TK animals confirmed pregnant at GD 18” value ([12]; 300 mg/kg) was 0/6, the “females” value ([12]; 300 mg/kg) was 0/8 and the AUC(0-t) [12, 13] was 4380 ng·h/mL. For the same compound, the Cmax [12, 13] was 291 ng/mL and the “external or visceral malformations or variations” value ([12]; surviving fetuses, 30 mg/kg/day) was “did not produce any external or visceral malformations or variations”.
